Holding throughout (type): in vivo, Arabidopsis thaliana
Assay [1] relates to Cesa3_S1040L, fpx1-1 mutant line. Kind of assay: Greenhouse phytotox, pre-emergent treatment. The method in brief:
(§1)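 Tolerance to cellulose biosynthesis inhibitors is assessed on M2 or M3 generation Arabidopsis grown in a greenhouse. Example inhibitors are fluorinated N4-aryl triazine-2,4-diamines, including N4-(4-bromo-2,3,5,6-tetrafluoro-phenyl)-6-(1-fluoro-1-methyl-ethyl)-1,3,5-triazine-2,4-diamine.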

The test system of assay [2] is Cesa1_P1010L, fpx2-2 mutant line. Kind of assay: Greenhouse phytotox, pre-emergent treatment. The method in brief: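 Greenhouse tests on M2 or M3 Arabidopsis plants for tolerance to cellulose biosynthesis-inhibiting herbicides, e.g. pentafluorophenyl-, tetrafluorophenyl- or chloro-trifluoropyridyl-substituted 1,3,5-triazine-2,4-diamines. Treatment given pre-emergence or post-emergence 6 weeks after sowing.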

For assay [3], the system named is A. thaliana WT L. erecta. Kind of assay: Greenhouse phytotox, pre-emergent treatment. An outline of the steps: as §1
Assay [4] deals with Cesa3_S983F, fpx1-3 mutant line. Kind of assay: Greenhouse phytotox, pre-emergent treatment. An outline of the steps: as §1
Assay [5] has as its system transgenic Arabidopsis plants, construct AtCESA1_G1013R. Kind of assay: Growth inhibition of transgenic Arabidopsis in 48-well plates, tolerance factor from IC50. The settings on record: SEQ ID NO 1, substitution G1013R, growth inhibition seven to ten days after seeding. An excerpt: (§2) For transformation of Arabidopsis thaliana, wildtype or mutated cellulose synthase sequences based on one of the following sequences SEQ ID NO: 72, 73, 74, 75, 76, or 77, are cloned with standard cloning techniques as described in Sambrook et al. (Molecular cloning (2001) Cold Spring Harbor Laboratory Press) in a binary vector containing resistance marker gene cassette (AHAS) and mutated cellulose synthase sequence (marked as GOI) in between ubiquitin promoter (PcUbi) and nopaline synthase terminator (NOS) sequence. Binary plasmids are introduced to Agrobacterium tumefaciens for plant transformation. Arabidopsis thaliana are transformed with wildtype or mutated cellulose synthase sequences by floral dip method as decribed by McElver and Singh (WO 2008/124495). Transgenic Arabidopsis plants are subjected to TaqMan analysis for analysis of the number of integration loci.
(§3) Transgenic Arabidopsis thaliana plants are assayed for improved tolerance to azine herbicides like e. g. 6-cyclopentyl-N4-(2,3,4,5,6-pentafluorophenyl)-1,3,5-triazine-2,4-diamine in 48-well plates. Therefore, T2 seeds are surface sterilized by stirring for 5 min in ethanol+water (70+30 by volume), rinsing one time with ethanol+water (70+30 by volume) and two times with sterile, deionized water. The seeds are resuspended in 0.1% agar dissolved in water (w/v) Four to five seeds per well are plated on solid nutrient medium consisting of half-strength murashige skoog nutrient solution, pH 5.8 (Murashige and Skoog (1962) Physiologia Plantarum 15: 473-497). Compounds are dissolved in dimethylsulfoxid (DMSO) and added to the medium prior solidification (final DMSO concentration 0.1%). Multi well plates are incubated in a growth chamber at 22° C., 75% relative humidity and 110 μmol Phot*m^−2*s^−1 with 14:10 h light:dark photoperiod. Growth inhibition is evaluated seven to ten days after seeding in comparison to wild type plants. Tolerance factors are calculated based on IC50 values of growth inhibition of transformed versus non-transformed Arabidopsis plants.

Assay [6] has as its system transgenic Arabidopsis plants, construct AtCESA1 wt. The description is as above. The settings on record: SEQ ID NO 1, growth inhibition seven to ten days after seeding.
Source text: as §2, §3

The subject of assay [7] is transgenic Arabidopsis plants, construct AtCESA3_S1037F. The description is as above. The settings on record: SEQ ID NO 3, substitution S1037F, growth inhibition seven to ten days after seeding.
Source text: as §2, §3

In assay [8] the test system is transgenic Arabidopsis plants, construct AtCESA3_S1040L. The description is as above. The settings on record: SEQ ID NO 3, substitution S1040L, growth inhibition seven to ten days after seeding.
Source text: as §2, §3

Assay [9] deals with transgenic Arabidopsis plants, construct AtCESA3_wt. The assay is described as above. The settings on record: SEQ ID NO 3, growth inhibition seven to ten days after seeding.
Source text: as §2, §3

Molecules are shown by their SMILES.

The record followed here is patent US12480137B2, “Plants having increased tolerance to herbicides” (BASF SE, priority 2014, dated 2025).

Regarding `Nc1nc(Nc2c(F)c(F)c(F)c(F)c2F)nc(C2CCCC2)n1` [6-cyclopentyl-N4-(2,3,4,5,6-pentafluorophenyl)-1,3,5-triazine-2,4-diamine], the “Phytotox value on a scale from 0-100 (100 is 100% damage)” value (shortened to “Phytotox value … (100 is 100% damage)”) turned out to be 5 in assay [1] (0.25 g ai/ha); 20 in [1] (0.98 g ai/ha); 25 in assay [1] (3.91 g ai/ha); 40 in [1] (15.63 g ai/ha); 0 in assay [2] (0.25 g ai/ha); 33 in assay [2] (0.98 g ai/ha). Besides, the “Phytotox value … (100 is 100% damage)” value in assay [2] (3.91 g ai/ha) was 63; in assay [2] (15.63 g ai/ha), 98; in assay [3] (0.25 g ai/ha), 38; in assay [3] (0.98 g ai/ha) it was 80; in assay [3] (3.91 g ai/ha), 99; in [3] (15.63 g ai/ha), 100. Also, the “Phytotox value … (100 is 100% damage)” value in assay [4] (0.25 g ai/ha) is 0; in assay [4] (0.98 g ai/ha) it was 5; in [4] (3.91 g ai/ha), 20; in [4] (15.63 g ai/ha), 40. Further, the “Relative tolerance rate (non-transgenic = 1.0)” value in [5] is 3; in [6], 1; in [7], 17; in assay [8], 1; in assay [9], 1.
